The values that follow come from publication PMC6273584, “Synthesis of Thiazolo[5,4-f]quinazolin-9(8H)-ones as Multi-Target Directed Ligands of Ser/Thr Kinases” (Molecules, 2016).

One assay concerns the target T1, CDK5/p25 (Homo sapiens, UniProt Q00535).
T1 construct: made in house
Description: In vitro kinase assay CDK5/p25, [γ-33P]ATP, histone H1 substrate. In kind it is biochemical. The protocol: (§1) It was also tested as positive control and its IC50 values were compared to those obtained for the compounds under study.
(§2) Buffer A: MgCl2 (10 mM), 1 mM ethylene glycol-bis(2-aminoethylether)-N,N,N’,N’- tetraacetic acid (EGTA), 1 mM dithiothreitol (DTT), 25 mM Tris-HCl pH 7.5, 50 μg heparin/mL. Buffer B: β-Glycerophosphate (60 mM), 30 mM p-nitrophenylphosphate, 25 mM 3-(N-morpholino) propanesulfonic acid (Mops) (pH 7.2), 5 mM EGTA, 15 mM MgCl2, 1 mM DTT, 0.1 mM sodium vanadate.
(§3) Blank values were substracted and activities expressed in % of the maximal activity, i.e., in the absence of inhibitors. Controls were performed with appropriate dilutions of dimethylsulfoxide (DMSO). IC50 values were calculated from dose-response curves established by Sigma-Plot graphs. The GSK-3, CK1, DYRK1A and CLK1 peptide substrates were obtained from Proteogenix (Oberhausbergen, France).
(§4) CDK5/p25. (Human, recombinant) was prepared as previously described. […] ATP (3000 Ci/mmol; 10 mCi/mL) in a final volume of 30 μL. After 30 min incubation at 30 °C, 25 μL aliquots of supernatant were spotted onto sheets of P81 phosphocellulose paper (Whatman) and 20 s later, the filters were washed eight times (for at least 5 min each time) in a solution of 10 mL phosphoric acid/L of water. The wet filters were counted in the presence of 1 mL ACS (Amersham, UK) scintillation fluid.

In the next assay the target is CK1δ/ε. As to the kind of experiment: In vitro kinase assay CK1δ/ε, CK1-specific peptide substrate. Type of assay: biochemical, Porcine. The protocol:
as §1, §2, §3, §4
CK1δ/ε. (Porcine brain, native) was assayed as described for CDK5/p25 but using the CK1-specific peptide substrate […]pSAYSITA [37].

The next assay has as its target DYRK1A (Rattus norvegicus, UniProt Q63470). Description: In vitro kinase assay DYRK1A, Woodtide substrate. In kind it is biochemical. Here is the method: as §1, §2, §3, §4
A further assay has as its target GSK-3α/β. As to the kind of experiment: In vitro kinase assay GSK-3α/β, GS-1 peptide substrate. Type of assay: biochemical, Porcine. The protocol: as §1, §2, §3, §4
GSK-3α/β. (Porcine brain, native) was assayed, as described for CDK5/p25 but in buffer A and using a GSK-3 specific substrate (GS-1: […]pSEDEEE) (pS stands for phosphorylated serine).

The target of the next assay is CLK1 (Homo sapiens, UniProt P49759). Description: biochemical.
Setting [1] is: 15 μM ATP, 30 min, 30 °C, triplicate, <50% inhibition at 10 μM = IC50 >10 μM.

Structures are written as SMILES. Like-named read-outs stand apart in the source and are kept apart here.

T1 sequence (Q00535 whole entry): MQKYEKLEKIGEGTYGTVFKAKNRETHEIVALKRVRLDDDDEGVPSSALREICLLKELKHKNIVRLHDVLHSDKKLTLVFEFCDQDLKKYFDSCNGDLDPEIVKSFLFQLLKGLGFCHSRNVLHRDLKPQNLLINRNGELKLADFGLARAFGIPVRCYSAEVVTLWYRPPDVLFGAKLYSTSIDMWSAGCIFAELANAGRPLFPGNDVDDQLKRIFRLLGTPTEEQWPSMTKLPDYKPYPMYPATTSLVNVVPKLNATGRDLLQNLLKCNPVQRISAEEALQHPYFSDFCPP
T1 sequence (Q15078 99-307 partner limits assumed): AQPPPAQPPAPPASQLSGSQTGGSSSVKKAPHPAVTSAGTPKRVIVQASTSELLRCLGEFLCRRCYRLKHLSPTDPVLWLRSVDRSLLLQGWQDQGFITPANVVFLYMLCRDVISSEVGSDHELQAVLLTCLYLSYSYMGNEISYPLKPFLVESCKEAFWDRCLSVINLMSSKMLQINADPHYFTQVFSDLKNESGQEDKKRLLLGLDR
Chain of CLK1 (P49759 whole entry): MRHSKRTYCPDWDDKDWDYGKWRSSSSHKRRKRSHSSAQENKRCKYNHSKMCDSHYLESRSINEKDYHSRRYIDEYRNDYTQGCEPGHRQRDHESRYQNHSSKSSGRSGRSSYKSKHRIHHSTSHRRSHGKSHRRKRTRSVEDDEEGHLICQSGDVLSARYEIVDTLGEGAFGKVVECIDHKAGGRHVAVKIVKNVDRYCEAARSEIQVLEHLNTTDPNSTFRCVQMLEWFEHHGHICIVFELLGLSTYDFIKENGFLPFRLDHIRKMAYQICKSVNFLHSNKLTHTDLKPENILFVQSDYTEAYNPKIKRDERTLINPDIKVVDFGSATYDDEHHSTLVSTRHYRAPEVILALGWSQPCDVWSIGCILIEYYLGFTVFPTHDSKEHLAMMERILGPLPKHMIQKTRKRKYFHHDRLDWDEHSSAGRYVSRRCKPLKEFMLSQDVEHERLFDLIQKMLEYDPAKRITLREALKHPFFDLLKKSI

What is called IC50 is the concentration needed to halve the response being measured. For `N#Cc1nc2ccc3ncn(C4CC4)c(=O)c3c2s1` [Compound 11a, 8-Cyclopropyl-9-oxo-8,9-dihydrothiazolo[5,4-f]quinazoline-2-carbonitrile], the IC50 on CDK5/p25 was > 10000 nM; at CK1δ/ε (setting [1]), > 10000 nM; at DYRK1A, 3300 nM; against GSK-3α/β, 3300 nM; against CLK1, 1100 nM.
As for `COCCn1cnc2ccc3nc(C#N)sc3c2c1=O` [Compound 11b, 8-(2-Methoxyethyl)-9-oxo-8,9-dihydrothiazolo[5,4-f]quinazoline-2-carbonitrile], the IC50 against CDK5/p25 is > 10000 nM; against CK1δ/ε (setting [1]) it was > 10000 nM; against DYRK1A, 7800 nM; against GSK-3α/β (setting [1]) it was ≥ 10000 nM; on CLK1 it was 4100 nM.
Consider `COCCCn1cnc2ccc3nc(C#N)sc3c2c1=O` [Compound 11c, 8-(3-Methoxypropyl)-9-oxo-8,9-dihydrothiazolo[5,4-f]quinazoline-2-carbonitrile], for which the IC50 is > 10000 nM on CDK5/p25; > 10000 nM against CK1δ/ε (setting [1]); 7700 nM against DYRK1A; 1200 nM on GSK-3α/β; 1300 nM at CLK1.
Regarding `COC(=N)c1nc2ccc3ncn(C4CC4)c(=O)c3c2s1` [Compound 12a, Methyl 8-cyclopropyl-9-oxo-8,9-dihydrothiazolo[5,4-f]quinazoline-2-carbimidate], the IC50 at CDK5/p25 was 3900 nM; against CK1δ/ε (setting [1]), > 10000 nM; on DYRK1A (read-out: DYRK1A IC50), 91 nM; at GSK-3α/β, 82 nM; against CLK1, 31 nM.
`COCCCn1cnc2ccc3nc(C(=N)OC)sc3c2c1=O` [Compound 12c, Methyl 8-(3-methoxypropyl)-9-oxo-8,9-dihydrothiazolo[5,4-f]quinazoline-2-carbimidate]: the IC50 against CDK5/p25 is > 10000 nM; against CK1δ/ε (setting [1]) it was > 10000 nM; on DYRK1A, 320 nM; at GSK-3α/β it was 120 nM; against CLK1, 210 nM.
In the case of `COC(=N)c1nc2ccc3ncn(C(C)C)c(=O)c3c2s1` [Compound 12d, Methyl 8-isopropyl-9-oxo-8,9-dihydrothiazolo[5,4-f]quinazoline-2-carbimidate], the IC50 was determined as 3000 nM at CDK5/p25; 5400 nM at CK1δ/ε; 140 nM against DYRK1A; 41 nM against GSK-3α/β; 160 nM on CLK1.
For the compound `COC(=N)c1nc2ccc3ncn(C4CCCC4)c(=O)c3c2s1` [Compound 12e, Methyl 8-cyclopentyl-9-oxo-8,9-dihydrothiazolo[5,4-f]quinazoline-2-carbimidate], the IC50 against CDK5/p25 is 4900 nM; at CK1δ/ε (setting [1]), > 10000 nM; on DYRK1A, 72 nM; against GSK-3α/β, 28 nM; against CLK1, 290 nM.
Taken in the same sequence, the figures for `COC(=N)c1nc2ccc3ncn(C4CCC4)c(=O)c3c2s1` [Compound 12f, Methyl 8-cyclobutyl-9-oxo-8,9-dihydrothiazolo[5,4-f]quinazoline-2-carbimidate] were > 10000 nM, > 10000 nM, 130 nM, 160 nM and 91 nM.
The like results for `COC(=N)c1nc2ccc3ncn(C4CCCCC4)c(=O)c3c2s1` [Compound 12g, Methyl 8-cyclohexyl-9-oxo-8,9-dihydrothiazolo[5,4-f]quinazoline-2-carbimidate] were, in that order, 1800 nM, > 10000 nM, 170 nM, 30 nM and 380 nM.
On to `COC(=N)c1nc2ccc3ncn(N(C)C)c(=O)c3c2s1` [Compound 12h, Methyl 8-dimethylamino-9-oxo-8,9-dihydrothiazolo[5,4-f]quinazoline-2-carbimidate], for which the IC50 is > 10000 nM at CDK5/p25; > 10000 nM at CK1δ/ε (setting [1]); 500 nM at DYRK1A (read-out: DYRK1A IC50); 300 nM against GSK-3α/β; 990 nM against CLK1.
Turning to `COC(=N)c1nc2ccc3ncn(CCN4CCOCC4)c(=O)c3c2s1` [Compound 12j, Methyl 8-(2-morpholinoethyl)-9-oxo-8,9-dihydrothiazolo[5,4-f]quinazoline-2-carbimidate], the IC50 is > 10000 nM at CDK5/p25; > 10000 nM at CK1δ/ε (setting [1]); 200 nM against DYRK1A; 1200 nM on GSK-3α/β; 690 nM on CLK1.
On to `COC(=N)c1nc2ccc3ncn(-c4ccc(C)cc4)c(=O)c3c2s1` [Compound 12k, Methyl 8-(p-tolyl)-9-oxo-8,9-dihydrothiazolo[5,4-f]quinazoline-2-carbimidate], for which the IC50 is > 10000 nM at CDK5/p25; > 10000 nM against CK1δ/ε (setting [1]); 380 nM against DYRK1A; 510 nM against GSK-3α/β; 880 nM against CLK1.
As for `COC(=N)c1nc2ccc3ncn(-c4ccc(OC)cc4)c(=O)c3c2s1` [Compound 12l, Methyl 8-(4-methoxyphenyl)-9-oxo-8,9-dihydrothiazolo[5,4-f]quinazoline-2-carbimidate], the IC50 is > 10000 nM against CDK5/p25; > 10000 nM at CK1δ/ε (setting [1]); 3000 nM against DYRK1A; 1200 nM on GSK-3α/β; 7900 nM against CLK1.
As to `COC(=N)c1nc2ccc3ncn(-c4ccc(N(C)C)cc4)c(=O)c3c2s1` [Compound 12m, Methyl 8-(4-dimethylaminophenyl)-9-oxo-8,9-dihydrothiazolo[5,4-f]quinazoline-2-carbimidate], the IC50 against CDK5/p25, against CK1δ/ε (setting [1]), at DYRK1A, against GSK-3α/β (setting [1]) and on CLK1 was > 10000 nM each time.
For the compound `COC(=N)c1nc2ccc3ncn(C)c(=O)c3c2s1` [Compound 12n, Methyl 8-methyl-9-oxo-8,9-dihydrothiazolo[5,4-f]quinazoline-2-carbimidate], the IC50 was > 10000 nM against CDK5/p25; > 10000 nM on CK1δ/ε (setting [1]); 180 nM against DYRK1A; 1700 nM on GSK-3α/β; 80 nM against CLK1.
For `N=C(OCc1ccccc1)c1nc2ccc3ncn(C4CC4)c(=O)c3c2s1` [Compound 13a, Benzyl 8-cyclopropyl-9-oxo-8,9-dihydrothiazolo[5,4-f]quinazoline-2-carbimidate], the IC50 on CDK5/p25 is > 10000 nM; against CK1δ/ε (setting [1]) it was > 10000 nM; at DYRK1A it was 60 nM; against GSK-3α/β (setting [1]) it was 100 nM; on CLK1, 60 nM.
Take `COCCn1cnc2ccc3nc(C(=N)OCc4ccccc4)sc3c2c1=O` [Compound 13b, Benzyl 8-(2-methoxyethyl)-9-oxo-8,9-dihydrothiazolo[5,4-f]quinazoline-2-carbimidate]: the IC50 against CDK5/p25 is > 10000 nM; against CK1δ/ε (setting [1]), > 10000 nM; on DYRK1A, 290 nM; against GSK-3α/β, 690 nM; at CLK1 it was 590 nM.
Take `COCCCn1cnc2ccc3nc(C(=N)OCc4ccccc4)sc3c2c1=O` [Compound 13c, Benzyl 8-(3-methoxypropyl)-9-oxo-8,9-dihydrothiazolo[5,4-f]quinazoline-2-carbimidate]: the IC50 is > 10000 nM at CDK5/p25; > 10000 nM against CK1δ/ε (setting [1]); 160 nM against DYRK1A; 110 nM at GSK-3α/β; 480 nM at CLK1.
On to `N=C(OCc1ccccc1)c1nc2ccc3ncn(C4CCCC4)c(=O)c3c2s1` [Compound 13e, Benzyl 8-cyclopentyl-9-oxo-8,9-dihydrothiazolo[5,4-f]quinazoline-2-carbimidate], for which the IC50 is > 10000 nM against CDK5/p25; > 10000 nM against CK1δ/ε (setting [1]); 62 nM against DYRK1A; 28 nM against GSK-3α/β; 320 nM at CLK1.
As for `N=C(OCc1ccccc1)c1nc2ccc3ncn(C4CCC4)c(=O)c3c2s1` [Compound 13f, Benzyl 8-cyclobutyl-9-oxo-8,9-dihydrothiazolo[5,4-f]quinazoline-2-carbimidate], the IC50 at CDK5/p25 was > 10000 nM; against CK1δ/ε (setting [1]), > 10000 nM; against DYRK1A it was 59 nM; on GSK-3α/β, 71 nM; against CLK1, 71 nM.
Regarding `CCOC(=N)c1nc2ccc3ncn(C(C)C)c(=O)c3c2s1` [Compound 14d, Ethyl 8-isopropyl-9-oxo-8,9-dihydrothiazolo[5,4-f]quinazoline-2-carboximidoate], the IC50 against CDK5/p25 was > 10000 nM; on CK1δ/ε (setting [1]), > 10000 nM; on DYRK1A, 370 nM; against CLK1, 340 nM.
On to `COc1ccc2c(c1)[nH]c1c(C)nccc12` [Harmine, reference compound], for which the IC50 was 1500 nM against CK1δ/ε and > 10000 nM against GSK-3α/β (setting [1]).
